Values after ≈ are worked out from the molar mass of the structure shown. Structures can show the parent of a compound that is named as a salt.
Experiments:
[1] = system: Southern Armyworm; experiment: Southern armyworm test, third-instar larvae on treated Sieva lima bean leaves; type: in vivo, Spodoptera eridania (Cramer); conditions: for Mortality Rating Southern Armyworm: third-instar larvae; for LC50: Spodoptera eridania, read-out: LC50 Southern Armyworm; for LC50 Southern Armyworm: in vivo
Procedure, shortened: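 Sieva lima bean plants, primary leaves expanded to 1.91 cm, were dipped with agitation for three seconds in test material dissolved in 65% acetone, with further dilutions in acetone, then air-dried in a hood. A treated leaf was placed in a 9 cm petri dish on moist filter paper with 10 third-instar Spodoptera eridania larvae about 1 cm long. Dishes were covered and kept at 80° F. and 50% r.h. Mortality and feeding were assessed after two days.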

[2] = system: Tobacco Budworm 3rd Instar; experiment: Tobacco budworm secondary test, third-instar larvae on treated cotton cotyledons; type: in vivo, Heliothis virescens (Fabricus)
[3] = system: Tobacco Budworm; experiment: Tobacco budworm LC50 and FD50 (instar not stated); type: in vivo, Heliothis virescens (Fabricus); conditions: Heliothis virescens; read-out: LC50 Tobacco Budworm
From the text: (§1) Test formulations and procedures used for evaluation are as follows:
FD50 = The concentration of insecticide required to reduce insect

[4] = system: Tobacco Budworm 1st Instar; experiment: Tobacco budworm initial test, treated eggs / newly hatched (1st instar) larvae on treated cotton leaves; type: in vivo, Heliothis virescens (Fabricus)
Protocol: as §1
A. 100 mg of the test material is weighed, placed in a funnel over a 113 g narrow-mouth bottle, rinsed into the bottle with a 35 mL scoop of acetone, followed by a 35 mL scoop of water and another 35 mL scoop of acetone to yield 1000 ppm in 65% acetone. If the material is not soluble, it is broken up with a glass rod and used as a suspension.
B. This stock solution ("A") is used to make 300 ppm solutions or suspensions by pipetting 30 mL of "A" into a bottle containing 70 mL of 50% acetone to yield 300 ppm. Further dilutions in 50% acetone are made as required.
C. Tests requiring 10 ppm acetone solutions: 1 mL of "A" is pipetted into 99 mL of acetone to yield 10 ppm. Additional dilutions are made using 50% acetone as required.
Tobacco Budworm--Heliothis virescens (Fabricus)
A cotton plant with two true leaves expanded is dipped for three seconds with agitation in 300 ppm solution. A 1.27 to 1.91 cm square of cheesecloth with about 50 to 100 budworm eggs 0-24 hours old is also dipped in the test solution and placed on a leaf of the cotton plant, all being placed in the hood to dry. The leaf with the treated budworm eggs is removed from the plant and placed in a 226 g Dixie cup with a wet 5 cm piece of dental wick and covered with a lid. The other leaf is placed in a similar cup with a wick and a piece of cheesecloth infested with 50-100 newly hatched larvae is added before covering the cup with a lid. After three days at 80° F., 50% relative humidity, observations of egg hatch are made, as well as kill of newly hatched larvae, any inhibition of feeding, or interference of any sort with normal development.

| SMILES | Mortality Rating Southern Armyworm ([1]; 10 ppm) | Mortality Rating Southern Armyworm ([1]; 100 ppm) | Mortality Rating Southern Armyworm ([1]; 1000 ppm) | Mortality Rating Tobacco Budworm 3rd Instar ([2]; 100 ppm) | Mortality Rating Tobacco Budworm 3rd Instar ([2]; 1000 ppm) | LC50 [3] [µg/mL] | LC50 [1] [µg/mL] | LC50 Southern Armyworm [1] [ppm] | Mortality Rating Tobacco Budworm 3rd Instar ([2]; 10 ppm) | Mortality Rating Tobacco Budworm 1st Instar ([4]; 300 ppm) | reduced feeding (R) Tobacco Budworm 3rd Instar ([2]; 100 ppm) | reduced feeding (R) Tobacco Budworm 3rd Instar ([2]; 1000 ppm) | Mortality Rating Tobacco Budworm 1st Instar ([4]; 10 ppm) | Mortality Rating Tobacco Budworm 1st Instar ([4]; 100 ppm) | reduced feeding (R) Tobacco Budworm 1st Instar ([4]; 100 ppm) | reduced feeding (R) Southern Armyworm ([1]; 100 ppm) |
| --- | --- | --- | --- | --- | --- | --- | --- | --- | --- | --- | --- | --- | --- | --- | --- | --- |
| CN(C)C(=O)N(N=Cc1ccc(OC(F)(F)F)cc1)C(=N)NN=Cc1ccc(OC(F)(F)F)cc1 [CF3 O / CF3 O / CH3 / CH3] | 9 (100%) | 9 (100%) | 9 (100%) | 3 (36-45%) | 9 (100%) | 77 (≈ 153 µM) | – | – | – | – | – | – | – | – | – | – |
| N=C(NN=Cc1ccc(C(F)(F)F)cc1)N(N=Cc1ccc(C(F)(F)F)cc1)C(=O)N1CCCC1 [CF3 / CF3 / (CH2)4] | 9 (100%) | 9 (100%) | 9 (100%) | 4 (46-55%) | 9 (100%) | 1000 (≈ 2010 µM) | 18 (≈ 36.1 µM) | 14 | 0 (No effect) | – | – | – | – | – | – | – |
| CCNC(=O)N(N=Cc1ccc(C(F)(F)F)cc1)C(=N)NN=Cc1ccc(C(F)(F)F)cc1 [CF3 / CF3 / C2 H5 / H] | – | 0 (No effect) | 9 (100%) | – | 0 (No effect) | – | – | – | – | 0 (No effect) | – | – | – | – | – | – |
| N=C(NN=Cc1ccc(Br)cc1)NN=Cc1ccc(C(F)(F)F)cc1 [CF3 / Br / HCl] | – | – | 9 (100%) | 0 (No effect) | 0 (No effect) | – | – | – | 0 (No effect) | 9 (100%) | R | R | 0 (No effect) | 0 (No effect) | R | – |
| N=C(NN=Cc1ccc(Cl)cc1)NN=Cc1ccc(Cl)cc1 [Cl / Base] | 0 (No effect) | 0 (No effect) | 9 (100%) | – | 0 (No effect) | – | – | – | – | 5 (56-65%) | – | – | – | – | – | – |
| CNC(=O)N(N=Cc1ccc(OC(F)F)cc1)C(=N)NN=Cc1ccc(OC(F)F)cc1 [HCF2 O / HCF2 O / CH3 / H] | – | 0 (No effect) | 9 (100%) | – | 0 (No effect) | – | – | – | – | 7 (76-85%) | – | – | – | – | – | – |
| CNC(=O)N(N=Cc1ccc(C(F)(F)F)cc1)C(=N)NN=Cc1ccc(C(F)(F)F)cc1 [CF3 / CF3 / CH3 / H] | 1 (11-25%) | 9 (100%) | 9 (100%) | – | 6 (66-75%) | – | 5 (≈ 10.9 µM) | – | – | 8 (86-99%) | – | – | – | 0 (No effect) | – | – |
| N=C(NN=Cc1ccc(F)cc1)NN=Cc1ccc(F)cc1 [F / B] | – | 2 (26-35%) | 9 (100%) | – | 3 (36-45%) | – | – | – | – | 0 (No effect) | – | – | – | 0 (No effect) | – | – |
| CN(C)C(=O)N(N=Cc1ccc(OC(F)F)cc1)C(=N)NN=Cc1ccc(OC(F)F)cc1 [HCF2 O / HCF2 O / CH3 / CH3] | 0 (No effect) | 9 (100%) | 9 (100%) | – | 0 (No effect) | – | 75 (≈ 160 µM) | – | – | 0 (No effect) | – | – | – | – | – | – |
| N=C(NN=Cc1ccc(OC(F)F)cc1)NN=Cc1ccc(OC(F)F)cc1 [HCF2 O / B] | 0 (No effect) | 6 (66-75%) | 9 (100%) | – | 0 (No effect) | – | – | – | – | 0 (No effect) | – | – | – | – | – | – |
| N=C(NN=Cc1ccc(OC(F)(F)C(F)F)cc1)NN=Cc1ccc(OC(F)(F)C(F)F)cc1 [HCF2 CF2 O / B, 1,3-bis{[p-(tetrafluoroethoxy)benzylidene]-amino}guanidine] | 0 (No effect) | 9 (100%) | 9 (100%) | 0 (No effect) | 9 (100%) | – | – | – | – | 9 (100%) | – | – | – | 0 (No effect) | R | – |
| N=C(NN=Cc1ccc(C(F)(F)F)cc1)NN=Cc1ccc(C(F)(F)F)cc1 [CF3 / HCl] | 0 (No effect) | 9 (100%) | 9 (100%) | 0 (No effect) | 5 (56-65%) | – | – | – | – | 9 (100%) | R | – | 0 (No effect) | 0 (No effect) | R | – |
| CC(C)COC(=O)N(N=Cc1ccc(C(F)(F)F)cc1)C(=N)NN=Cc1ccc(C(F)(F)F)cc1 [CF3 / CF3 / -i-C4 H9] | – | 0 (No effect) | 9 (100%) | – | 0 (No effect) | – | – | – | – | 0 (No effect) | – | – | – | – | – | – |
| N=C(NN=Cc1ccc(C(F)(F)F)cc1)NN=Cc1ccc(C(F)(F)F)cc1 [CF3 / B, 1,3-bis{[p-(trifluoromethyl)benzylidene]amino}guanidine] | 0 (No effect) | 9 (100%) | 9 (100%) | 0 (No effect) | 8 (86-99%) | – | – | – | – | 6 (66-75%) | – | – | – | 0 (No effect) | – | – |
| CN(C)C(=O)N(N=Cc1ccc(OC(F)(F)C(Cl)Cl)cc1)C(=N)NN=Cc1ccc(OC(F)(F)C(Cl)Cl)cc1 [HCCl2 CF2 O / HCCl2 CF2 O / CH3 / CH3] | – | 9 (100%) | 9 (100%) | 2 (26-35%) | 0 (No effect) | 140 (≈ 221 µM) | 26 (≈ 41 µM) | – | – | – | – | – | – | – | – | – |
| N=C(NN=Cc1ccc(Cl)cc1)NN=Cc1ccc(Br)cc1 [Cl / Br / HCl] | – | 2 (26-35%) | 9 (100%) | – | 0 (No effect) | – | – | – | – | 0 (No effect) | – | – | – | – | – | R |
| CCN(CC)C(=O)N(N=Cc1ccc(C(F)(F)F)cc1)C(=N)NN=Cc1ccc(C(F)(F)F)cc1 [CF3 / CF3 / C2 H5 / C2 H5] | 7 (76-85%) | 9 (100%) | 9 (100%) | – | 4 (46-55%) | – | 8 (≈ 16 µM) | 12 | – | 0 (No effect) | – | – | – | – | – | – |
| CN(C)C(=O)N(N=Cc1ccc(Br)cc1)C(=N)NN=Cc1ccc(Br)cc1 [Br / Br / CH3 / CH3] | 0 (No effect) | 9 (100%) | 9 (100%) | 0 (No effect) | 2 (26-35%) | – | – | – | – | 0 (No effect) | – | – | – | – | – | – |
| CN(C)C(=O)N(N=Cc1ccc(OC(F)(F)C(F)Cl)cc1)C(=N)NN=Cc1ccc(OC(F)(F)C(F)Cl)cc1 (stereo not shown) [drawing 40 / drawing 41 / CH3 / CH3] | 9 (100%) | 9 (100%) | 9 (100%) | 4 (46-55%) | 9 (100%) | 201 (≈ 334 µM) | – | – | 0 (No effect) | – | – | – | – | – | – | – |

— patent publication US4575560A, “Insecticidal diaminoguanidine hydrazone compounds” (American Cyanamid Company, priority 1985, dated 1986)
